Source: patent publication US5104852A, “Method for the inhibition of the proliferation of cancer cells in a tumor sensitive to treatment with a selenodithiol by the injection into the tumor of a selenodithiol such as selenodiglutathione” (The Ohio State University, priority 1991, dated 1992)

Assays:
[1] = tested on: human tumor cell lines; test: Cell culture assay (microculture tetrazolium/MTT assay); assay type: cell-based
Excerpt: The purpose of the cell culture assay is a method for measuring at what concentration of the cancer treating agent will inhibit neoplastic cell division or protein synthesis, and thus cause the death of the neoplastic cells. The particular assay technique is a modification of that described by Mosmann, Jour. of Immunol. Meth., 65, 1983, pp. 55-63. The cell lines used for the in vitro assay are: […]
The plating density of each cell type used in the assay is set forth below: […]
The procedure followed involved adding for each cell type 200 microliters of the cell suspension at the concentration determined above, to each well of a 96-well plate. The plates were allowed to incubate for twenty four hours at 37° C. and humidified in the presence of a 5% CO2 atmosphere, whereupon 20 microliters of GSSeSG concentrations ranging from 10^-8 M to 10^-4 M were added to the wells located on the plate. A variety of concentrations of cycloheximide and adriamycin were utilized as a control. The resulting plates were incubated for six days at 37° C., humidified in a 5% CO2 atmosphere and on the final day of the assay, 20 μl were added to each well of [MTT 3-(4,5-dimethylthiazol-2-yl)-2,5-diphenyl tetrazolium bromide], obtained from Sigma Cat #M2128. The MTT is prepared by combining 5mg/ml of a phosphate buffered saline (PBS) solution. […] Upon completion, the optical density of each well was read on an elisa plate reader set at 570nm (test sample) and 630nm (for reference).
FIGS. 4 through 11 provide comparisons of the effects at increasing concentrations of adriamycin and GSSeSG as measured by variations in optical density of various cell solutions. […] Variations in optical density, measured by a spectrophotometer, are indicative of the level of cellular activity. […]

[2] = tested on: peripheral blood lymphocytes; test: Sister Chromatid Exchange (mutagenicity); assay type: cell-based, human; settings: FIG. 2, compared with selenite and selenomethionine
Excerpt: FIG. 2 describes the effect that GSSeSG has with respect to the mutagenicity of three selenium containing, cancer treating agents as a function of their respective concentrations. More particularly, the preferred selenodithiol, GSSeSG is contrasted with two other selenium containing compounds, selenite and selenomethionine in the treatment of peripheral blood lymphocytes, i.e., normal human cells taken from different sections of the body. […] As one in the art is aware, in the technique known as Sister Chromatid Exchange (SCE) the particular nucleotide components which comprise the DNA genetic code cross over to form cell mutations which lead to the birth and growth of rapidly dividing neoplastic cells.

[3] = tested on: DMBA (7,12-dimethylbenz(a)anthracene) induced tumors; test: DMBA-induced tumors in rats, injection of agents (Table 1, FIG. 3); assay type: in vivo
Excerpt: The Table contrasts the results obtained by the desired dosage with the results obtained from four other groups of ten rats; the rats in each group being inoculated with cancer immunotoxins in differing dosages of both GSSeSG, retinol (HPR) and mixtures of each, as well as a control sample of […] which were not administered with cancer treating agents. All one hundred rats were inoculated with DMBA (7,12-dimethylbenz(a)anthracene) so as to induce cancer cell formation, which was then allowed to form tumors over a period of two months prior to testing. […] Thus, Table 1 clearly illustrates both the effectiveness of GSSeSG when utilized in the desired range of proportions and also the fact that even relatively small variations in excess of the crisis zone in its administration will cause severe damage to the host subject, while the proper range of dosages is substantially non-toxic to the treated host.

[4] = tested on: rat mammary tumor; test: Direct injection into rat mammary tumor (FIG. 12, FIG. 13); assay type: in vivo
Procedure: The tumor was induced in each rat by the administration of 7,12-dimethylbenz(a)anthracene and allowed to proliferate to the predetermined sized range of 1.5 to 2.5 centimeters in diameter. The selenodiglutathione was injected at a level of 700 micrograms directly into the central region of the tumor mass fifteen times over the course of thirty days.
FIG. 13 illustrates a table comparing the volume changes of three rat mammary cancer tumors injected over time. The curve marked "C" represents the volume increase in a control tumor injected with eluate from the column but with no selenodithiol. Curves "L" and "H" represent cancer tumors injected according to different treatment schedules of selenodiglutathione. The "L" tumor received a dose of selenodiglutathione of 1.46cc of 7×10^-3 M every forty eight hours for twenty eight days while the "H" tumor received a dose of selenodiglutathione of 2.8cc of 7×10^-3 M every ninety six hours for twenty eight days. […] The control tumor, C, continued to increase in volume dramatically.

[5] = tested on: secondary superficial tumors; test: Injection at site distant from the tumor; assay type: in vivo, rats; settings: effective dosages injected at site distant from the tumor
Procedure: It has further been discovered that rats which are injected with effective dosages of GSSeSG at site distant from the tumor will still kill the cancer tumors.

[6] = molecular target: T1, elongation factor 2 (EF-2) (Rattus norvegicus, UniProt P05197); settings: cell-free system derived from rats; cited from earlier work
T1 construct: in a cell-free system derived solely from rats

[7] = tested on: Malignant Mouse Lymphoid Cells; settings: intraperitoneal injections, mice previously inoculated with tumor cells, versus untreated control; cited from earlier work
[8] = molecular target: EF-2 (Rattus norvegicus, UniProt P05197); settings: in vitro amino acid incorporation; cited from earlier work
[9] = tested on: Human Breast Cancer Cells; settings: parenteral administration, mice; cited from earlier work
[10] = tested on: DU-145 Human Prostate Carcinoma Cells; settings: in vitro; cited from earlier work
[11] = tested on: DMBA-induced mammary tumorigenesis; settings: cited from earlier work
[12] = 1 μg per gram of rat body weight
[13] = retinol alone or GSSeSG mixed with retinol, groups of ten rats

SMILES: N[C@@H](CCC(=O)N[C@@H](CS[Se]SC[C@H](NC(=O)CC[C@H](N)C(=O)O)C(=O)NCC(=O)O)C(=O)NCC(=O)O)C(=O)O [GSSeSG, selenodiglutathione]
- concentration up to which neoplastic cell division increases ([1]; FIG. 1): up to 10^-6 M
- concentration at which neoplastic cells survive (purple solution obtained) ([1]; MTT, six days incubation): less than 10^-6 M
- concentration inhibiting neoplastic cell division or protein synthesis (purple solution not obtained) ([1]; MTT, six days incubation): at least 10^-5 M
- number of Sister Chromatid Exchanges (inducible mutation) [2]: low number
- effect on cancer cells [3, 12]: substantial elimination of the cancer cells
- harm to the rats as indicated by bodyweight [3, 12]: substantially no harm to the rats
- mortality of rats ([3]; 2 μg of GSSeSG per gram of bodyweight, ten rats, seventy nine days): all but one of these specimens are dead
- tumor volume change, "L" tumor ([4]; 1.46cc of 7×10^-3 M every forty eight hours for twenty eight days, FIG. 13): stopped growing
- tumor volume change, "H" tumor ([4]; 2.8cc of 7×10^-3 M every ninety six hours for twenty eight days, FIG. 13): decreased in volume to a level significantly below the initial volume
- detrimental effect to the animal ([4]; 700 micrograms into central region of tumor, fifteen times over thirty days): without any detrimental effect
- tumor size ([4]; 700 micrograms into central region of tumor, fifteen times over thirty days, FIG. 12): decreased dramatically
- effect on tumors distant from the point of injection [5]: disappearance of secondary superficial tumors
- effectiveness in inhibiting protein synthesis versus sodium selenite or oxidized glutathione [6]: substantially more effective
- life span of the animals [7]: increased the life span
- tumor growth [7]: inhibited the tumor growth

SMILES: CC1=C(/C=C/C(C)=C/C=C/C(C)=C/CO)C(C)(C)CCC1 [retinol, reference compound]
- damage to the rats (bodyweight column) [3, 13]: severe damage to the rats
- effect on cancer [3, 13]: effective in arresting the cancer

SMILES: O=[Se](O)O [sodium selenite]
- concentration that can inhibit EF-2 [8]: 11 µM
- development of cancerous tumors [9]: completely inhibits
- growth of human prostate carcinoma cells [10]: inhibits the growth
- tumorigenesis, high fat fed animals ([11]; high fat fed rats): did not respond as favorably
- tumorigenesis, low fat diets ([11]; rats on low fat diets): decrease tumorigenesis
